The subject of data set [1] is Arthrobacter sp. (IAI-3). Nature of the data set: large drop inoculum (LDI) test, Arthrobacter. Particulars: UV-cured coating on polystyrene plastic; after 3 hours in contact with the surface. Type of data set: cell-based. The method, then:
To guarantee all inoculated cells enter into contact with the test surface, the samples with the droplet are subjected to a standardized 3 h drying period. The cells are then recovered, serially diluted, plated out onto tryptic soy agar, and enumerated to assess the extent of cell survival and thus antimicrobial efficacy of the test surfaces. Arthrobacter (IAI-3) and E. coli (ATCC strain 11229) were chosen as representative Gram-positive and Gram-negative bacterial strains.

Data set [2] deals with E. coli (ATCC strain 11229). Nature of the data set: large drop inoculum (LDI) test, E. coli. Type of data set: cell-based. To be noted: UV-cured coating on polystyrene plastic; after 24 hours in contact with the surface. An excerpt: To guarantee all inoculated cells enter into contact with the test surface, […], serially diluted, plated out onto tryptic soy agar, and enumerated to assess the extent of cell survival and thus antimicrobial efficacy of the test surfaces. Arthrobacter (IAI-3) and E. coli (ATCC strain 11229) were chosen as representative Gram-positive and Gram-negative bacterial strains.
The efficacy of these materials against the representative strains of Gram-negative and Gram-positive bacteria lead us to probe the antimicrobial capability of these materials after being subject to abrasive processes, to determine whether tethered sub-surface phosphonium observed by XPS can translate to materials with antimicrobial properties after the surface has be abraded. The process of using an aqueous solution to wipe or rub away dirt or bacteria is one fundamental to sanitation,^50 and as such the solvent double rub protocol described in ASTM D5402^51 was chosen as a representative test of durability. Water was chosen as the solvent due to its ubiquity in cleaning solutions. The same extruded polypropylene samples subjected to the LDI were first rinsed with copious amounts of sterile distilled water, then vortexed for 5 minutes in saline to remove any bacterial debris from the initial test. After another rinse step, the pieces were subjected to 100 solvent double rubs on the tested side using a cotton cloth saturated with distilled water, the amount of force of each rub measured to be between 1000 g and 1600 g. After 100 double rubs, the pieces were rinsed, sterilized under UV light, and the abraded sides were subject to another loading of bacteria.

A short description of data set [3]: advancing water contact angle measurement. Type of data set: physicochemical. Particulars: UV-cured phosphonium coating on polystyrene; triplicate. As for the experimental part:
Advancing water contact angle (θC) measurements were performed on the coated pieces to further probe the relationship between the structure of the phosphonium small molecules coated on the substrate and their macroscopic properties as coatings. Measurements for θC trend with charge density results (Table 1).
Thus, after the coating step, a pre-extrusion UV-cure process was introduced to immobilize the phosphoniums to the plastic bead surface. Extrusion of these pre-cured beads at 220° C. into a mold pre-heated to 100° C. yielded the tributylphosphonium-containing plastic PP-2, triphenylphosphonium-containing PP-3, (FIG. 8) and perfluoroalkylphosphonium-containing PP-4 as off-white coloured “dogbone” pieces. The discoloration was due to the amber or off-white natural coloring of the phosphoniums added to the melt, and not UV or heat exposure. The effect of incorporating each phosphonium at 1% was quantified by advancing WCA (Table 1). […] FIG. 1 is a schematic illustration showing a cross section of antimicrobial-enriched plastic with sub-surface phosphonium, which upon abrasion is exposed and available to combat microbial growth.

Entries after “also recorded” stand apart in the source; their conditions may differ.

With `C[P+](C)(C)CCCOc1ccc(C(=O)c2ccccc2)cc1.[Br-]` [phosphonium 1], the “reduction of viable Gram-positive Arthrobacter cells” value in data set [1] is given as “failing to reduce bacterial survivability; also recorded: lack of observed antimicrobial activity”. The “reduction of viable Gram-negative E. coli cells” value in data set [2] is reported as “failing to reduce bacterial survivability; also recorded: lack of observed antimicrobial activity”. Also, in data set [3], the “θc, advancing water contact angle” value amounted to 71.9 ± 5.1 deg.

Take `O=C(c1ccccc1)c1ccc(OCCC[P+](CCC(F)(F)C(F)(F)C(F)(F)C(F)(F)C(F)(F)C(F)(F)F)(c2ccccc2)c2ccccc2)cc1.[Br-]` [phosphonium 4]: in data set [1], the “reduction of viable Gram-positive Arthrobacter cells” value was “full reductions”. The “reduction of viable Gram-negative E. coli cells” value in data set [2] was “full reductions”. Besides, the “θc, advancing water contact angle” value in data set [3] is 68.0±2.0 deg.

Take `O=C(c1ccccc1)c1ccc(OCCC[P+](c2ccccc2)(c2ccccc2)c2ccccc2)cc1.[Br-]` [phosphonium 3]: the “reduction of viable Gram-positive Arthrobacter cells” value in data set [1] is on record as “full reductions”. Besides, in data set [2], the “reduction of viable Gram-negative E. coli cells” value is “full reductions”. Besides, the “θc, advancing water contact angle” value in data set [3] is 63.5±5.8 deg.

Take `CCCC[P+](CCCC)(CCCC)CCCOc1ccc(C(=O)c2ccccc2)cc1.[Br-]` [phosphonium 2]: the “reduction of viable Gram-positive Arthrobacter cells” value in data set [1] is given as “full reductions”. Further, the “reduction of viable Gram-negative E. coli cells” value in data set [2] is “full reductions”. Moreover, in data set [3], the “θc, advancing water contact angle” value worked out at 36.4±11.0 deg.

For the origin of these results see patent publication US11840548B2, “UV-curable phosphonium small molecules as antimicrobial coatings and surface active additives” (SCI RESOURCE PLATFORM INC., priority 2020, dated 2023).
